Assay results published in paper PMC2630805, “Anticancer Alkaloid Lamellarins Inhibit Protein Kinases” (Marine Drugs, 2008).

Experiments:
[1] = target: p38α kinase (h) (Homo sapiens, UniProt Q16539); test: CEREP Kinase Selectivity Panel; format: biochemical; conditions: 10 μM lamellarin N
[2] = target: PDK1 (h) (Homo sapiens, UniProt O15530); test: CEREP Kinase Selectivity Panel; format: biochemical; conditions: 10 μM lamellarin N
[3] = target: CSK (h) (Homo sapiens, UniProt P41240); test: CEREP Kinase Selectivity Panel; format: biochemical; conditions: 10 μM lamellarin N
[4] = target: p38δ kinase (h) (Homo sapiens, UniProt O15264); test: CEREP Kinase Selectivity Panel; format: biochemical; conditions: 10 μM lamellarin N
[5] = target: DYRK1A (Rattus norvegicus, UniProt Q63470); test: DYRK1A kinase assay (myelin basic protein)
Experimental: (§1) Blank values were subtracted and activities calculated as pmoles of phosphate incorporated during a 30 min. incubation. The activities were expressed in % of the maximal activity, i.e. in the absence of inhibitors. Controls were performed with appropriate dilutions of dimethylsulfoxide. Unless otherwise stated, the P81 phosphocellulose assay was used.
DYRK1A was expressed as a GST fusion protein in E. coli (vector kindly provided by Dr. W. Becker, Institute for Pharmacology and Toxicology, Aachen, Germany) and affinity purified on glutathione-agarose. […] ATP in a final volume of 30 μl. After 30 min incubation at 30°C, 25 μl aliquots of supernatant were treated as described above.

[6] = target: Lyn kinase (h) (Homo sapiens, UniProt P07948); test: CEREP Kinase Selectivity Panel; format: biochemical; conditions: 10 μM lamellarin N
[7] = target: Fyn kinase (h) (Homo sapiens, UniProt P06241); test: CEREP Kinase Selectivity Panel; format: biochemical; conditions: 10 μM lamellarin N
[8] = target: PKCα (h) (Homo sapiens, UniProt P17252); test: CEREP Kinase Selectivity Panel; format: biochemical; conditions: 10 μM lamellarin N
[9] = test system: AMPKα; test: CEREP Kinase Selectivity Panel; format: biochemical; conditions: 10 μM lamellarin N
[10] = target: CaMK4 (h) (Homo sapiens, UniProt Q16566); test: CEREP Kinase Selectivity Panel; format: biochemical; conditions: 10 μM lamellarin N
[11] = target: FLT-1 kinase (h) (VEGFR1) (Homo sapiens, UniProt P17948); test: CEREP Kinase Selectivity Panel; format: biochemical; conditions: 10 μM lamellarin N
[12] = target: ROCK2 (h) (Homo sapiens, UniProt O75116); test: CEREP Kinase Selectivity Panel; format: biochemical; conditions: 10 μM lamellarin N
[13] = target: PDGFRβ kinase (h) (Homo sapiens, UniProt P09619); test: CEREP Kinase Selectivity Panel; format: biochemical; conditions: 10 μM lamellarin N
[14] = target: IRK (h) (InsR) (Homo sapiens, UniProt P06213); test: CEREP Kinase Selectivity Panel; format: biochemical; conditions: 10 μM lamellarin N
[15] = target: CDK5/p25 (Homo sapiens, UniProt Q00535); test: CDK5/p25 kinase assay (histone H1)
Experimental: as §1
Its activity was assayed with histone H1 in buffer C as described for CDK1/cyclin B.

[16] = target: Lck kinase (h) (Homo sapiens, UniProt P06239); test: CEREP Kinase Selectivity Panel; format: biochemical; conditions: 10 μM lamellarin N
[17] = target: Src kinase (h) (Homo sapiens, UniProt P12931); test: CEREP Kinase Selectivity Panel; format: biochemical; conditions: 10 μM lamellarin N
[18] = test system: CDK1/cyclin B, CDK5/p25, GSK-3α/ß, PIM-1, DYRK1A, CK1; test: Kinase assay panel, structure/activity comparison; format: biochemical; conditions: transposition of substitutions at R3 and R4 of lamellarin D
Experimental: All compounds were run on our kinase assay panel comprising CDK1/cyclin B, CDK5/p25, GSK-3α/ß, PIM-1, DYRK1A, CK1.
Kinase activities were assayed in buffer A (10 mM MgCl2, 1 mM EGTA, 1 mM DTT, 25 mM Tris-HCl pH 7.5, 50 μg heparin/ml) or C (60 mM β-glycerophosphate, 15 mM p-nitrophenyl phosphate, 25 mM MOPS (pH 7.2), 5 mM EGTA, 15 mM MgCl2, 1 mM dithiothreitol, 1 mM sodium vanadate, 1 mM phenylphosphate, 0.1 % Nonidet P-40), at 30°C, at a final ATP concentration of 15 μM. Blank values were subtracted and activities calculated as pmoles of phosphate incorporated during a 30 min. incubation. The activities were expressed in % of the maximal activity, i.e. in the absence of inhibitors. Controls were performed with appropriate dilutions of dimethylsulfoxide. Unless otherwise stated, the P81 phosphocellulose assay was used.

[19] = target: TRKA (h) (Homo sapiens, UniProt P04629); test: CEREP Kinase Selectivity Panel; format: biochemical; conditions: 10 μM lamellarin N
[20] = target: CK1; test: CK1 kinase assay (CKS peptide); format: biochemical, porcine; conditions: 15 μM ATP; cell '− (x)' = no inhibitory activity detected, x = highest concentration tested
Experimental: CK1 was purified from porcine brain by affinity chromatography on immobilized axin fragment. The mixture of native CK1 isoforms (essentially CK1δ and CK1ɛ) was assayed in three-fold diluted buffer C, using 25 μM CKS peptide, a CK1 selective substrate (RRKHAAIGpSAYSITA, synthesized by Millegen (Labège, France). Assays were performed for 30 min. at 30°C, as described for GSK-3.

[21] = test system: human neuroblastoma SH-SY5Y cells; test: SH-SY5Y cell survival, MTS reduction assay; format: cell-based; conditions: read-out: IC50 SH-SY5Y cell survival
Experimental: We next tested the effects of each lamellarin, at an initial 10 μM concentration, on the survival of the neuroblastoma SH-SY5Y cell line after 48 h exposure (Table 2). Cell survival was estimated by the MTS reduction assay.
SH-SY5Y human neuroblastoma cells were grown in DMEM supplemented with 2mM L-glutamine (Invitrogen, Cergy Pontoise, France), plus antibiotics (penicillin-streptomycin) and a 10% volume of fetal calf serum (FCS) (Invitrogen). Cell viability was determined by means of the MTS (3- (4,5-dimethylthiazol-2-yl)-5- (3-carboxymethoxyphenyl)-2- (4-sulfophenyl)-2H -tetrazolium) reduction method as previously described. Cell death was (also) assayed by LDH release. Lactate dehydrogenase is a stable cytosolic enzyme that is released upon cell lysis. SH-SY5Y cells were also subjected to caspase activity assays. These are based on cleavage of a synthetic caspase substrate DEVD (MP Biomedicals, 199423), a subtrate of active caspase 3/6/7. The assay was carried out according to manufacturer’s instructions.

[22] = target: CDC2/CDK1 (h) (cycB) (Homo sapiens, UniProt P06493); test: CEREP Kinase Selectivity Panel; format: biochemical; conditions: 10 μM lamellarin N
[23] = target: c-Met kinase (h) (Homo sapiens, UniProt P08581); test: CEREP Kinase Selectivity Panel; format: biochemical; conditions: 10 μM lamellarin N
[24] = target: PKCβ 1 (h) (Homo sapiens, UniProt P05771); test: CEREP Kinase Selectivity Panel; format: biochemical; conditions: 10 μM lamellarin N
PKCβ 1 (h), sequence (P05771 whole entry): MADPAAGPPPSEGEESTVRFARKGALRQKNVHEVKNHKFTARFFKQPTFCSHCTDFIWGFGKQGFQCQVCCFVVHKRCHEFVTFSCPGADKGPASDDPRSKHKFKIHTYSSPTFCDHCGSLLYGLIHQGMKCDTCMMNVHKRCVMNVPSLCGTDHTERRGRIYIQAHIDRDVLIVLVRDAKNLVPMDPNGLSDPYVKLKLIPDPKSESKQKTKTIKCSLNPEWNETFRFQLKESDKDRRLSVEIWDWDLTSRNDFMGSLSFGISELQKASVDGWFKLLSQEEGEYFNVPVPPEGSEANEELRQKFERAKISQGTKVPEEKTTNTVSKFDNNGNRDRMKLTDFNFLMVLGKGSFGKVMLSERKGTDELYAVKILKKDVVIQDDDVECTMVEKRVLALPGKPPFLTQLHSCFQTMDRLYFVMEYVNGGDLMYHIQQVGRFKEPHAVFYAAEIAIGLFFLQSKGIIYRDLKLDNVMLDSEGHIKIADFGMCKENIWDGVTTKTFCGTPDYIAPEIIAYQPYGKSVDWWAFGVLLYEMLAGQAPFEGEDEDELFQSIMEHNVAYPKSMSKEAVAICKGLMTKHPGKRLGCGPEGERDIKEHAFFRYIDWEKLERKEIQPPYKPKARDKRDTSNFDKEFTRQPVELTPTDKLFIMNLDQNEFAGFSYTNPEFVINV

p38δ kinase (h), sequence (O15264 whole entry): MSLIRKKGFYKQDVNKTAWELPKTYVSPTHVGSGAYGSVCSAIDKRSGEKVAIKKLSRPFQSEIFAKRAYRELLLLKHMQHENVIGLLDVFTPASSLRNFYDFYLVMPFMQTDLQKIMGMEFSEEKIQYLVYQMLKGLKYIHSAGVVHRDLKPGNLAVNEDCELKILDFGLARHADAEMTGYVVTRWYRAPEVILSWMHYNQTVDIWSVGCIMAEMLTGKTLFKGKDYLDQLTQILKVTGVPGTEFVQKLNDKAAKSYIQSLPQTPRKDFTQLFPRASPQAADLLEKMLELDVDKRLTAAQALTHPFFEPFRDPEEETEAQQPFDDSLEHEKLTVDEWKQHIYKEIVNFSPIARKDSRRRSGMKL
Fyn kinase (h), sequence (P06241 whole entry): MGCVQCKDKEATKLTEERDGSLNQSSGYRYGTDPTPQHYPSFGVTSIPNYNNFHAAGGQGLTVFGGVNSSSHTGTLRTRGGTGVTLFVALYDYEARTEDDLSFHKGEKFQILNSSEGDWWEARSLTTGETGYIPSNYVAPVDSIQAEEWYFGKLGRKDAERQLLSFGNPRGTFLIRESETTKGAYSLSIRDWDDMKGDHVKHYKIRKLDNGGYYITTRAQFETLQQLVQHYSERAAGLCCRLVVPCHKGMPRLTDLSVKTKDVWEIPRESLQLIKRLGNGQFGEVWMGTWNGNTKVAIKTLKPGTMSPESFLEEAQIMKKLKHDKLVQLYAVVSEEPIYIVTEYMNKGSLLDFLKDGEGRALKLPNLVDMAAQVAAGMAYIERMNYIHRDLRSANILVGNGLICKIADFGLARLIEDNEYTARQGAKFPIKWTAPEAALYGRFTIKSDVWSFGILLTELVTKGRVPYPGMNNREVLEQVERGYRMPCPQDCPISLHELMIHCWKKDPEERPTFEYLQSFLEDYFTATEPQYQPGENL
CaMK4 (h), sequence (Q16566 whole entry): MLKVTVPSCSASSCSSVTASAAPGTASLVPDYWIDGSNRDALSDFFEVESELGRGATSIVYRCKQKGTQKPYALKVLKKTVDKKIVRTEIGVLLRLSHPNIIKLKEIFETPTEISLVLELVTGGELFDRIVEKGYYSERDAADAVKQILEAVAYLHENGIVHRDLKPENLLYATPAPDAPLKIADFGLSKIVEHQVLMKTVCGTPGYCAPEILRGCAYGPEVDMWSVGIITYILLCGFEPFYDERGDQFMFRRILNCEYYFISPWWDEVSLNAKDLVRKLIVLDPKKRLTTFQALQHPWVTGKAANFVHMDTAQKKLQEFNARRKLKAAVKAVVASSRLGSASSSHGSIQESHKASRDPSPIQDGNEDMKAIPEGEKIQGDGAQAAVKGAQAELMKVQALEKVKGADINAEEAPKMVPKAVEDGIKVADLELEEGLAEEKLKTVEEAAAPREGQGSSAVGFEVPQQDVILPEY
Src kinase (h), sequence (P12931 whole entry): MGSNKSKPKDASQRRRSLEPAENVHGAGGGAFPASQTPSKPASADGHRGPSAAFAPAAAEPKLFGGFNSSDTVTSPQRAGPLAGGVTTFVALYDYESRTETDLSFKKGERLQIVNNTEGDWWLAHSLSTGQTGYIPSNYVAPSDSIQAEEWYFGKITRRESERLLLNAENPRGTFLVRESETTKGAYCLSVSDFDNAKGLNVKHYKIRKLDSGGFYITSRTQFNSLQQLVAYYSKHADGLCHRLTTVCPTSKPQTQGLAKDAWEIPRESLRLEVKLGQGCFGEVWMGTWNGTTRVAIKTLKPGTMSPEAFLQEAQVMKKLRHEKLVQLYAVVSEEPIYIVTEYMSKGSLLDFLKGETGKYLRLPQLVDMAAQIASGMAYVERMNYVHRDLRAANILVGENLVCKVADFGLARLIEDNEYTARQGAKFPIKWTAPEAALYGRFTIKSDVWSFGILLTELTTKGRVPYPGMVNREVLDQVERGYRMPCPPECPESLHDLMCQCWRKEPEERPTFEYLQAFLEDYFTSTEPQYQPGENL
CDC2/CDK1 (h) (cycB), sequence (P06493 whole entry): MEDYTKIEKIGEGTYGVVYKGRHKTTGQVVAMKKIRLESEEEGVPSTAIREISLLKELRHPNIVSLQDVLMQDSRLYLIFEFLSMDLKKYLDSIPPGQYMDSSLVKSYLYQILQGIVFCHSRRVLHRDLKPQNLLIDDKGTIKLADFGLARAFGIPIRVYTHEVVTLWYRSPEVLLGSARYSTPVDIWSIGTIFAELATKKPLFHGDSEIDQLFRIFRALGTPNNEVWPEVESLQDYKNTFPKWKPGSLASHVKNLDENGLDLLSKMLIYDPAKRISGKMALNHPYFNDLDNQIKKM
CDC2/CDK1 (h) (cycB), sequence (P14635 whole entry partner): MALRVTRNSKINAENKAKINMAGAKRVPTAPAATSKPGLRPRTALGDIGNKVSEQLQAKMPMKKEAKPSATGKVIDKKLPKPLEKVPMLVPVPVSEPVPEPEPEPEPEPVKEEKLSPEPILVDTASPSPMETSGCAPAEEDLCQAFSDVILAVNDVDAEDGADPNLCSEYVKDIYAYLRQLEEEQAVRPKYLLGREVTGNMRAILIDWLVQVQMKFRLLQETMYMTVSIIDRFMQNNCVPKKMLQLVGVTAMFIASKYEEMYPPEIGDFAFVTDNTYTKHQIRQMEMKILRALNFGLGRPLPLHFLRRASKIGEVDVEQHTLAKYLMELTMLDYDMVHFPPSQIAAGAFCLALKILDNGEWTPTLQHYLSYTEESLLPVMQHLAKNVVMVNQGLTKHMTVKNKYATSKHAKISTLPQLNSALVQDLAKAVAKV
PDGFRβ kinase (h), sequence (P09619 33-1106): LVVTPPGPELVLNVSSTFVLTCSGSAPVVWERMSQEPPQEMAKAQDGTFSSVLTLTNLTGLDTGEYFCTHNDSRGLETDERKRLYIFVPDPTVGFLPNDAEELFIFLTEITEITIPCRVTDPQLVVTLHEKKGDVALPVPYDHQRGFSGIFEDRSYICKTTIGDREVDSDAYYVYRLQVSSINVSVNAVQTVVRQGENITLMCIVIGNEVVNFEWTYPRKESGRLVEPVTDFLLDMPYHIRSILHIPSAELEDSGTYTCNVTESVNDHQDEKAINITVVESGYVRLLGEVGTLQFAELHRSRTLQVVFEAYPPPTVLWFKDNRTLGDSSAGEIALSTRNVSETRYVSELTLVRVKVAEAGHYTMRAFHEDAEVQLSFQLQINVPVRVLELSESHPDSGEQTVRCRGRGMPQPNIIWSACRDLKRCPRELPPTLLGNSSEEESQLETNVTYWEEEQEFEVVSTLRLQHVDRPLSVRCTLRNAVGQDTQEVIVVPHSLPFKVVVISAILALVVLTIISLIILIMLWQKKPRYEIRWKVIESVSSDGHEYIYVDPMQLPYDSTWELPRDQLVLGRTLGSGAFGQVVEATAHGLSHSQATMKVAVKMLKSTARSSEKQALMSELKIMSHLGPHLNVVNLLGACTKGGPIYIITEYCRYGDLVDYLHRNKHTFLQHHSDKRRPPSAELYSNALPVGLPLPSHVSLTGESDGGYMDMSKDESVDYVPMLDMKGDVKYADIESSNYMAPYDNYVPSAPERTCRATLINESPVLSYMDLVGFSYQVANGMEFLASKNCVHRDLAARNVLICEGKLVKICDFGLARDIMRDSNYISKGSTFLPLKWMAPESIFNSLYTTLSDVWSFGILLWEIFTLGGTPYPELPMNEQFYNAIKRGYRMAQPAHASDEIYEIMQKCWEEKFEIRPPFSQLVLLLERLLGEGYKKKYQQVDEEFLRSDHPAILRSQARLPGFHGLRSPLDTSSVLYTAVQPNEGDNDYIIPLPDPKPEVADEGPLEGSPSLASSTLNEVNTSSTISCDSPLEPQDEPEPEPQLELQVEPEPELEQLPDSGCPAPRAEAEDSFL
Lck kinase (h), sequence (P06239 whole entry): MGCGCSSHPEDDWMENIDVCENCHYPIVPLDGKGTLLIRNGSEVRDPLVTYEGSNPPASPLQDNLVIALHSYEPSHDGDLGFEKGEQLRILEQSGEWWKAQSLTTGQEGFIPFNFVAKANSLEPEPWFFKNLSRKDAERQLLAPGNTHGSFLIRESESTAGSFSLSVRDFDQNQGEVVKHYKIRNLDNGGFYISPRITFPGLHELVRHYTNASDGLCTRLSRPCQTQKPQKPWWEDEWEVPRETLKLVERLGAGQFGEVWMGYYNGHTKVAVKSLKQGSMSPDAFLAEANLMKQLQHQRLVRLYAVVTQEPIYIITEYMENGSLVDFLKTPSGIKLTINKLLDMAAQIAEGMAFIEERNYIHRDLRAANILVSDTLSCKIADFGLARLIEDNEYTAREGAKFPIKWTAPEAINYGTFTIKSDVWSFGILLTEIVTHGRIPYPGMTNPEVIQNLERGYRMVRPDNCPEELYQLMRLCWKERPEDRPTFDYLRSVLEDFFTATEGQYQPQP

SMILES: COc1ccc(-c2c3c4cc(OC)c(O)cc4oc(=O)c3n3ccc4cc(O)c(OC)cc4c23)cc1O [Compound 6, lamellarin N]
- Activity (% of control) [1]: 97.4 % of control
- Activity (% of control) [2]: 89.8 % of control
- Activity (% of control) [3]: 47.4 % of control
- Activity (% of control) [4]: 96.0 % of control
- IC50 [5]: 35 nM
- Activity (% of control) [6]: 7.2 % of control
- Activity (% of control) [7]: 20.1 % of control
- Activity (% of control) [8]: 91.7 % of control
- Activity (% of control) [9]: 42.4 % of control
- Activity (% of control) [10]: 89.9 % of control
- Activity (% of control) [11]: 4.0 % of control
- Activity (% of control) [12]: 103.3 % of control
- Activity (% of control) [13]: 1.8 % of control
- Activity (% of control) [14]: 46.7 % of control
- IC50 [15]: 25 nM
- Activity (% of control) [16]: 7.1 % of control
- Activity (% of control) [17]: 56.2 % of control
- enhancement of kinase inhibitory activity relative to lamellarin D [18]: 10 fold
- Activity (% of control) [19]: 0.8 % of control
- IC50 [20]: > 10000 nM
- IC50 [21]: 25 nM
- Activity (% of control) [22]: 20.4 % of control
- Activity (% of control) [23]: 92.1 % of control
- Activity (% of control) [24]: 102.0 % of control
